Columns and labels:
[1] = test system: Arabidopsis thaliana seedlings; settings: continuous exposure; Steenackers et al. 2016; cited from earlier work
[2] = test system: Fusarium proliferatum (isolate Fpr18); assay: Onion seedling emergence with PA seed coating, Fusarium proliferatum (Example 12); format: in vivo; settings: onion seeds with 300 μM PA coating vs mock coating
Experimental: Seed coatings were applied by dipping seeds in a coating solution containing 20 g/I high viscosity carboxymethylcellulose (Sigma-Aldrich, Saint Louis, USA) in distilled water as well as 300 μM of the target compound. Seeds were then dried overnight at room temperature.
Onion seeds were coated with a 300 μM PA solution as outlined in the chemical treatments section. F. oxysporum (isolate Foc26), F. solani (isolate Fso18) and F. proliferatum (isolate Fpr18) were originally extracted from Vietnamese onion fields. Inoculum was obtained as described in the fungal culture section. The inoculum was diluted to a concentration of 1.0×10^7 spores per ml with sterile PBS buffer. The coated seeds were then soaked in the spore solution for one hour. To avoid excessive PA leaching from the PA coating, 100 μM of PA was added to the spore solution.
After soaking in the PA solution, seeds were left to dry for thirty minutes. Twenty seeds were then sowed per pot in potting soil; three pots were used per treatment and per fungal isolate (for a total of 60 seeds per treatment-isolate combination). The pots were covered in cling film and left on a window sill at room temperature. After eight and ten days, the number of germinated seedlings per pot was counted.
Germination experiments were analyzed by fitting a three-parameter log-logistic model as implemented in the R drc package.

[3] = test system: Botrytis cinerea (isolate R16); assay: Botrytis cinerea infection of detached tomato leaves (Example 13); format: in vivo; set-up: dose or concentration left out as unconfirmed; settings: spray containing PA, four days after inoculation, vs control
Experimental: Tomato plants (cv. Moneymaker) were grown for four weeks in potting soil as described in the plant material section. Six hours before inoculation, the third leaf of each tomato plant was detached. The petioles were wrapped in wet tissue paper and the leaves were placed on a petri dish. […] Finally, the tray was covered with a plastic autoclave bag to keep humidity at 100%.
Botrytis cinerea (line R16) spores were obtained as described in the fungal culture section, centrifuged for five minutes at 3000 rpm and resuspended to a concentration of 1.0×10^6 spores per ml with a solution of 0.01 M glucose and 0.0067 M KH2PO4. The spore suspension was left at room temperature for one hour to trigger germination. […]
Six drops of spore suspension of 15 μl each were spotted on each detached tomato leaf, after which the tray was covered again. The tray was placed at room temperature away from direct sunlight and left for four days. At this point, chlorophyll fluorescence measurements were taken to assess the success of infection. Two parameters were assessed: whether the B. cinerea lesion had spread beyond the droplet area (successful invasion) and the total surface area of successfully established lesions (post-invasion growth).

[4] = test system: OsAOS2; assay: qRT-PCR in rice roots, OsAOS2 (Example 20); format: in vivo, Oryza sativa; settings: rice cv. Bomba root tissue; same samples as Example 19
Experimental: (§1) After quality control, qPCR was carried out.
(§2) To test whether other defense hormones might be involved, genes responsive to jasmonic acid (the biosynthesis gene OsAOS2) and auxin (the auxin conjugating enzyme OsGH3.1) were investigated. Moreover, the callose-degrading enzyme OsGNS5, downregulation of which is associated with basal defense, was also investigated. The qRT-PCR analysis was performed on the same samples used in the previous Example.

[5] = test system: OsGH3.1; assay: qRT-PCR in rice roots, OsGH3.1 (Example 20); format: in vivo, Oryza sativa; settings: rice cv. Bomba root tissue; same samples as Example 19
Experimental: as §1, §2

[6] = test system: Pseudomonas syringae (pv. DC3000); assay: Pseudomonas syringae infection experiment in tomato (Example 21); format: in vivo; settings: PA foliar spray
Experimental: Tomato plants (Solanum lycopersicum cv. Moneymaker) were grown in potting soil as described in the plant materials section until the fourth leaf stage. Plants were treated with a piperonylic acid or control spray as described in the chemicals section. Twenty-four hours before inoculation, the tomato plants were placed in a sealed cloche to keep humidity at 100%.
A glycerol stock of P. syringae pv. DC3000 kept at−80° C. was spotted on petri dishes containing King's B agar amended with 75 μg/ml rifampicine (Duchefa Biochemie, Haarlem, the Netherlands). The plates were incubated in the dark at 28° C. for one week. At this time point, glass test tubes containing 5 ml of liquid King's B each (without rifampicin) were inoculated with cells from the plates and placed on an orbital shaker at 200 rpm for 24 hours at 28° C. 100 μl of this liquid inoculum was transferred to fresh glass test tubes containing 5 ml of liquid King's B each (without rifampicin), which were placed on an orbital shaker at 200 rpm for 24 hours at 28° C.
At this time point, the liquid culture was diluted with fresh King's B medium to an OD of 1.0. This medium was then centrifuged at 3000 rpm for ten minutes; the supernatant was discarded and the cells were resuspended in 10 mM MgSO4 to an OD of 0.20. To this inoculum, 0.01 v/v % Silwet 77 surfactant was added.
Whole tomato plants were inoculated by briefly dipping them in a beaker of the aforementioned inoculum. After dipping, plants were placed back in the sealed cloche for 12 hours. […]
Due to the difference in disease progression, two different scoring systems were used. In the first experiment, the number of lesions per plant was counted three days after inoculation and the percentage of leaf area covered by lesions was quantified using the ImageJ software after seven days. In the second experiment, each fully developed leaf was scored on a disease scale between 0 and 4 as follows: 0=no visible symptoms; 1=isolated lesions; 2=large lesions, covering <50% of leaf area; 3=lesions covering more than half of the leaf area; 4=leaf irreversibly shriveled or abscised. […]

[7] = test system: Pythium splendens; assay: Pythium splendens in green bean with PA seed coating (Example 22); format: in vivo
Experimental: FIG. 25: (a) effect of a 500 μM piperonylic acid coating compared to a mock coating on germination in soil with or without Pythium splendens (PA: piperonylic acid coating, no Pythium; CON: mock coating, no Pythium; PA+Ps: piperonylic acid coating, Pythium splendens; CON+Ps: mock coating, Pythium splendens); N=45. (b) plant health score of emerged seedlings fourteen days after the start of the experiment. Scores: 0=seedling died after emergence; 1=seedling alive but stunted; 2=seedling healthy. (c) primary root length fourteen days after the start of the experiment, with bars indicating means and error bars standard deviation.

[8] = test system: spring wheat (Triticum aestivum cv. Fielder); assay: Yield and fertility in pathogen-free spring wheat (Example 2); settings: 300 μM foliar spray three times; vs. control
Experimental: For Example 2, the spring wheat cultivar Fielder was used. Seeds were obtained from plants grown in the greenhouse complex of the VIB (Zwijnaarde, Belgium). Seeds were sown directly in potting soil (four seeds to a pot, thinned to three plants per pot after emergence) and placed in a growth chamber at 21° C. with 16 hours per day of light. These plants were grown until harvest; they were sprayed three times with the compounds of the invention at a concentration of 300 μM using the protocol described in the chemicals section. Spraying took place 14 and 21 days after emergence and a final time at heading.
In all cases model assumptions were verified using diagnostic plots (residuals, QQ-plot, scale-location and residuals-leverage). Outliers were removed only if they were outliers both in the statistical sense and if there was a biological reason for removal (e.g. the plant was stunted or developed a secondary infection).
To determine the effects of C4H inhibition on yield and fertility, spring wheat (Triticum aestivum cv. Fielder) was grown in a pathogen-free growth chamber until maturity and treated with a control or C4H inhibitor-containing foliar spray at regular intervals. At harvest, the number of ears per plant, the seed mass, the size of the seeds and the germination ability of the freshly harvested seeds were measured. Seed size was measured using the stacking density of the seed as a proxy measure; if a given seed mass takes up a greater volume, then the individual seeds must be larger.

Question: With `O=C(O)/C=C/c1ccc2c(c1)OCO2` [MDCA, 3,4-methylenedioxycinnamic acid] as the compound, how does the IC50 [1] read?
Answer: The IC50 was 5.07 µM.

Question: For `O=C(O)c1ccc2c(c1)OCO2` [PA, Piperonylic acid], which “improvement of seedling emergence” value [2] is on record?
Answer: The value was “+79%”.

Question: And the “change of mean size of successfully established/spreading lesions” value [3]?
Answer: Its value is −62%.

Question: And the “change of number of inoculation spots in which fungal lesions developed” value [3]?
Answer: Its value is −50%.

Question: What about the “Fold change vs. control, OsAOS2 expression” value [4] of the same compound?
Answer: Its value is 0.71.

Question: And the “Fold change vs. control, OsGH3.1 expression” value [5]?
Answer: Its value is 1.21.

Question: What about the “mean percentage of leaf area covered by lesions” value ([6]; first experiment, after seven days) of the same compound?
Answer: The value was “reduced”.

Question: And the “change of total number of lesions per plant” value ([6]; first experiment, three days after inoculation, vs control)?
Answer: Its value is −25%.

Question: What about the “reduction of mean plant disease index” value ([6]; second experiment, scale 0 to 4) of the same compound?
Answer: The value was 20%.

Question: What about the “emergence in soil containing P. splendens” value ([7]; 500 μM PA seed coating vs mock coating) of the same compound?
Answer: Its value is “did not improve emergence”.

Question: And the “seedling health after emergence” value ([7]; 500 μM PA seed coating vs mock coating, fourteen days)?
Answer: The value was “significantly improved”.

Question: What about the “primary root length in P. splendens-infested soil vs control-coated seeds” value ([7]; 500 μM PA seed coating, fourteen days) of the same compound?
Answer: The value was “longer”.

Question: What about the “Total yield (seed mass)” value [8] of the same compound?
Answer: Its value is “not significantly different”.

Question: And the “germination after fourteen days of freshly harvested seeds” value [8]?
Answer: The value was “not significantly different”.

Question: What about the “mean number of ears per plant” value [8] of the same compound?
Answer: The value was “the same in all treatments”.

Question: What about the “seed size (stacking density)” value [8] of the same compound?
Answer: The value was “no effect”.
